Source: ChEMBL document CHEMBL2321868, “The discovery of novel potent trans-3,4-disubstituted pyrrolidine inhibitors of the human aspartic protease renin from in silico three-dimensional (3D) pharmacophore searches” (J Med Chem, 2013)

Experiments:
[1] = molecular target: T1, Renin (Homo sapiens, UniProt P00797); assay: Inhibition of human recombinant renin expressed in CHO cells using RE(EDANS)IHPFHLVIHTK(Dabcyl)R as substrate incubated for 1 hr prior to substrate addition measured after 2 hrs by FRET-based enzymatic assay
T1 sequence (P00797 whole entry): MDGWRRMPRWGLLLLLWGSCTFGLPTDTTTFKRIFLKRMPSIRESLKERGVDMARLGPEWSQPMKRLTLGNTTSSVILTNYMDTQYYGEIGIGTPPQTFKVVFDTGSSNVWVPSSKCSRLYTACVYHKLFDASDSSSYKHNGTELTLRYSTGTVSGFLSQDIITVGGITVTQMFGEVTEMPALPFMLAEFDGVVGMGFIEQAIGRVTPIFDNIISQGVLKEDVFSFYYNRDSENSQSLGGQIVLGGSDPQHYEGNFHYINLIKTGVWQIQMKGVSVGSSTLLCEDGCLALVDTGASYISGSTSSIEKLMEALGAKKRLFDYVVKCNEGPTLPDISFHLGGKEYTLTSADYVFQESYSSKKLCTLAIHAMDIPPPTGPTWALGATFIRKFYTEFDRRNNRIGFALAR

[2] = molecular target: Cathepsin D (Homo sapiens, UniProt P07339); assay: Inhibition of human recombinant cathepsin-D expressed in baculovirus-infected insect sf9 cells using Ac- E-D(EDANS)-KPILFFRLG-K(Dabcyl)-E-Amid as substrate incubated for 1 hr prior to substrate addition measured after 1 hr by FRET-based enzymatic assay
Sequence of Cathepsin D (P07339 65-162 limits assumed): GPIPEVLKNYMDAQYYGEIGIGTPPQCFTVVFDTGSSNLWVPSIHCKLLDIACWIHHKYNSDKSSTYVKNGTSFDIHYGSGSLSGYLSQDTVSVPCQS
Sequence of Cathepsin D (P07339 169-412 limits assumed): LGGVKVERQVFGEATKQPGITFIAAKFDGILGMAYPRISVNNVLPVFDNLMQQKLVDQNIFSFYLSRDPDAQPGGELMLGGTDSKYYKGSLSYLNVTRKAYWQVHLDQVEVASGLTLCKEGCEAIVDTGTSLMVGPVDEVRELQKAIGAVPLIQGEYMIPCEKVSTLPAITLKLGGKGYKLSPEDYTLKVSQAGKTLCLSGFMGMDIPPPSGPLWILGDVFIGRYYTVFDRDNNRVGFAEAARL

[3] = molecular target: T2, Gastricsin (Homo sapiens, UniProt P20142); assay: Inhibition of human recombinant pepsin C expressed in Escherichia coli using Dabcyl-E-R-Nle-F-L-S-F-P-EDANS as substrate incubated for 1 hr prior to substrate addition measured after 1 hr by FRET-based enzymatic assay
T2 sequence (P20142 whole entry): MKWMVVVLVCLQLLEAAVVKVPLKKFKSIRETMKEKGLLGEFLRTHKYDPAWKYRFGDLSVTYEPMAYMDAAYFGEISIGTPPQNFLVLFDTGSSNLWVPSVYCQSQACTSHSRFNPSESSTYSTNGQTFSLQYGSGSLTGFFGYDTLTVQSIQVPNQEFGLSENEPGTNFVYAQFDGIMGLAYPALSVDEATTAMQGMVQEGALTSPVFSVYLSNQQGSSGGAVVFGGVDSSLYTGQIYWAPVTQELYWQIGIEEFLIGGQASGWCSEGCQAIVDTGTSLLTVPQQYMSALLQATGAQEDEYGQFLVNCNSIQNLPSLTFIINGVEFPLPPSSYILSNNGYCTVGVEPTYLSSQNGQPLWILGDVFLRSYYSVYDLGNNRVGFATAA

[4] = molecular target: T3, Cathepsin E (Homo sapiens, UniProt P14091); assay: Inhibition of human recombinant cathepsin-E expressed in Escherichia coli using Ac- E-D(EDANS)-KPILFFRLG-K(Dabcyl)-E-Amid as substrate incubated for 1 hr prior to substrate addition measured after 1 hr by FRET-based enzymatic assay
T3 sequence (P14091 whole entry): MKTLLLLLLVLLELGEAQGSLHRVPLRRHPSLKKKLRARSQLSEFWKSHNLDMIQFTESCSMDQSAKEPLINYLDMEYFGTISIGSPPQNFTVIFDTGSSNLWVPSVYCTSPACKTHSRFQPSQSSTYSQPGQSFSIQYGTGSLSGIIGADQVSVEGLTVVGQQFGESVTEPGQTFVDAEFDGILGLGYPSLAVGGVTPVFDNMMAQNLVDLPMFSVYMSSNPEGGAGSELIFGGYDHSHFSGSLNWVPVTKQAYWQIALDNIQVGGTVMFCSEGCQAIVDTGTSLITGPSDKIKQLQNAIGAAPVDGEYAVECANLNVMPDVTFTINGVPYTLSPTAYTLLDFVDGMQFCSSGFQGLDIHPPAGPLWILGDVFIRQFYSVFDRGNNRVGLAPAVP

[5] = Inhibition of human recombinant pepsin A expressed in Escherichia coli using Dabcyl-E-R-Nle-F-L-S-F-P-EDANS as substrate incubated for 1 hr prior to substrate addition measured after 1 hr by FRET-based enzymatic assay
[6] = molecular target: T4, Renin (Homo sapiens) (UniProt P00797); assay: Inhibition of human recombinant renin expressed in CHO cells using RE(EDANS)IHPFHLVIHTK(Dabcyl)R as substrate at 10 uM incubated for 1 hr prior to substrate addition measured after 2 hrs by FRET-based enzymatic assay
T4 sequence (whole entry): T1 sequence (P00797 whole entry)

Clc1ccc(N(C[C@@H]2CNC[C@H]2Cc2ccccc2)c2ccccc2)cc1
IC50 [1]: 7.6 µM
IC50 [2]: 11 µM
IC50 [3]: 29 µM
IC50 [4]: 11 µM
IC50 [5]: 4.5 µM

c1ccc([C@H]2CCNC[C@@H]2OCc2ccc3ccccc3c2)cc1
inhibition [6]: 34%

Clc1ccc(N(C[C@H]2CNC[C@@H]2Cc2ccccc2)c2ccccc2)cc1
IC50 [1]: 18 µM

COCCCOc1cc(CN(CC2CNCC2Cc2ccccc2)C(C)C)ccc1OC (racemic)
IC50 [1]: 7.7 µM

COCCCOc1cc(C(=O)N(CC2CNCC2Cc2ccccc2)c2ccc(Cl)cc2)ccc1OC (racemic)
IC50 [1]: 1.7 µM

COCCCOc1cc(C(=O)N(C[C@H]2CNC[C@@H]2Cc2ccccc2)C(C)C)ccc1OC
IC50 [1]: 2.7 µM

COCCCOc1cc(C(=O)N(CC2CNCC2Cc2ccccc2)c2ccccc2)ccc1OC (racemic)
IC50 [1]: 1.9 µM

COCCCOc1cc(C(=O)N(CC2CNCC2Cc2ccccc2)C(C)C)ccc1OC (racemic)
IC50 [1]: 0.45 µM

COCCCOc1cc(CN(CC2CNCC2Cc2ccccc2)c2ccc(Cl)cc2)ccc1OC (racemic)
IC50 [1]: 9.8 µM

Clc1ccc(N(CC2CNCC2Cc2ccccc2)c2ccccc2)cc1 (racemic)
IC50 [1]: 14 µM

Clc1ccc(N(Cc2ccccc2)CC2CNCC2Cc2ccccc2)cc1 (racemic)
IC50 [1]: 4.1 µM
